The subject of experiment [1] is NCI-H358(KRAS^G12C mutation) cells. As to the kind of experiment: Cell assay of antiproliferative activity (Celltiter-Glo, 5 days) against NCI-H358 cells. Format: cell-based. Conditions: 5 days incubation. In a few lines: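 Cells plated overnight, then given a 10-point compound series (stock dilutions 50 μM to 0.003 μM, 100 nL added per well) and grown 5 days. Luminescence read after 10 min shaking at room temperature. IC50 from curve fitting.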

Experiment [2] concerns A549(KRAS^G12S mutation) cells. As to the kind of experiment: Cell assay of antiproliferative activity (Celltiter-Glo, 5 days) against A549 cells. In kind it is cell-based. Conditions: 5 days incubation. The method, then:
Cell assay of antiproliferative activity of compounds against NCI-H358(KRAS^G12C mutation) and A549(KRAS^G12S mutation) cells.
40 μl phosphate buffer was added to the outer wells of the 384 microplate, and 40 μl cell suspension to be tested was added to the other wells. Then the microplate was incubated in a carbon dioxide incubator overnight.
The compounds to be tested were gradiently diluted, each compound was performed 10 concentration gradients (diluted from 50 μM to 0.003 μM) and added 100 nL to the corresponding wells in the microplate. After addition, 40 μl of phosphate buffer was added to each well in rows A and P and columns 1 and 24, and then the microplate was incubated in a carbon dioxide incubator for 5 days.
20 μL of Promega Celltiter-Glo reagent was added to each well of the microplate, and then the luminescence signal was stabilized by oscillating at room temperature for 10 min. Then PekinElmer Envision multi-label analyzer was used to read.
Finally, GraphPad Prism software was used to calculate the IC50 value of the compound and the fitting curve was drawn.
Anti-proliferative activity of the compounds of the present invention against NCI-H358(KRAS^G12C mutation) and A549(KRAS^G12S mutation) cells were shown in Table 1.
Background: Cellular ATP, detected with luciferase, serves as a proxy for viable cell number.

The source of these data is patent US11459327B1, “Cycloalkyl and hetero-cycloalkyl inhibitors, preparation methods therefor, and use thereof” (Suzhou Zelgen Biopharmaceuticals Co., Ltd., priority 2019, dated 2022).

Usually IC50 stands for the concentration that gives 50% inhibition. High values mean weaker potency, low ones greater potency. `C=CC(=O)N1CCN(c2nc(OCCN(CC(F)(F)F)C3CCC3)nc3c2CCN(c2cccc4cccc(Cl)c24)C3)CC1CC#N` (stereo not drawn) [Example 10, 2-(1-acroloyl-4-(7-(8-chloronaphthalen-1-yl)-2-(2-(cyclobutyl(2,2,2-trifluoroethyl)amino)ethoxy)-5,6,7,8-tetrahydropyrido[3,4-d]pyrimidin-4-yl)piperazin-2-yl) acetonitrile]: the IC50 in experiment [1] (Homo sapiens, NCI-H358, 120 h) was 6500 nM; in experiment [2] (Homo sapiens, 120 h) it was 17400 nM.

On to `C=CC(=O)N1CCN(c2nc(OCCN(CCOC)C3CCC3)nc3c2CCN(c2cccc4cccc(Cl)c24)C3)CC1CC#N` (stereo not drawn) [Example 5], for which the IC50 worked out at 60 nM in experiment [1] (Homo sapiens, NCI-H358, 120 h) and 7100 nM in experiment [2] (Homo sapiens, 120 h).

Turning to `C=CC(=O)N1CCN(c2nc(OCCN(C)CC3CC3)nc3c2CCN(c2cccc4cccc(C)c24)C3)CC1CC#N` (stereo not drawn) [Example 73], the IC50 in experiment [1] (Homo sapiens, NCI-H358, 120 h) was found to be 60 nM; in experiment [2] (Homo sapiens, 120 h), 3700 nM.

On to `C=CC(=O)N1CCN(c2nc(OCCN(C)[C@H](C)C3CC3)nc3c2CCN(c2cccc4cccc(C)c24)C3)CC1CC#N` (stereo partly drawn) [Example 79, 2-(1-acroloyl-4-(2-(2-(((R)-1-cyclopropylmethyl)(methyl)amino)ethoxy)-7-(8-methylnaphthalen-1-yl)-5,6,7,8-tetrahydropyrido[3,4-d]pyrimidin-4-yl)piperazin-2-yl) acetonitrile], for which the IC50 in experiment [1] (Homo sapiens, NCI-H358, 120 h) stood at 40 nM; in experiment [2] (Homo sapiens, 120 h), 3100 nM.

For the compound `C=CC(=O)N1CCN(c2nc(OCC3(COC)CC3)nc3c2CCN(c2cccc4cccc(Cl)c24)C3)CC1CC#N` (stereo not drawn) [Example 20, 2-(1-acroloyl-4-(7-(8-chloronaphthalen-1-yl)-2-((1-(methoxymethyl)cyclopropyl)methoxyl)-5,6,7,8-tetrahydropyrido[3,4-d]pyrimidin-4-yl)piperazin-2-yl) acetonitrile], the IC50 in experiment [1] (Homo sapiens, NCI-H358, 120 h) is 870 nM; in experiment [2] (Homo sapiens, 120 h) it was 7700 nM.

For the compound `C=CC(=O)N1CCN(c2nc(OCCN(C)C3CC3)nc3c2CCN(c2cccc4cccc(C)c24)C3)CC1CC#N` (stereo not drawn) [Example 70, 2-(1-acroloyl-4-(2-(2-((cyclopropyl)(methyl)amino)ethoxy)-7-(8-methylnaphthalen-1-yl)-5,6,7,8-tetrahydropyrido[3,4-d]pyrimidin-4-yl)piperazin-2-yl) acetonitrile], the IC50 in experiment [1] (Homo sapiens, NCI-H358, 120 h) is 170 nM; in experiment [2] (Homo sapiens, 120 h), 11500 nM.

For `C=CC(=O)N1CCN(c2nc(OCCN(C)C3COC3)nc3c2CCN(c2cccc4cccc(C)c24)C3)CC1CC#N` (stereo not drawn) [Example 7, 2-(1-acroloyl-4-(2-(2-(methyl(cyclobutoxy-3-yl)amino)ethyoxyl)-7-(8-methylnaphthalen-1-yl)-5,6,7,8-tetrahydropyrido[3,4-d]pyrimidin-4-yl)piperazin-2-yl) acetonitrile], the IC50 in experiment [1] (Homo sapiens, NCI-H358, 120 h) was 72 nM; in experiment [2] (Homo sapiens, 120 h), 8200 nM.

As to `C=CC(=O)N1CCN(c2nc(OC[C@@H](C)N(C)CC3CC3)nc3c2CCN(c2cccc4cccc(C)c24)C3)CC1CC#N` (stereo partly drawn) [Example 75], the IC50 in experiment [1] (Homo sapiens, NCI-H358, 120 h) came out at 90 nM; in experiment [2] (Homo sapiens, 120 h), 2800 nM.

As to `C=CC(=O)N1CCN(c2nc(OCCN(C)CC3(F)CC3)nc3c2CCN(c2cccc4cccc(C)c24)C3)CC1CC#N` (stereo not drawn) [Example 4], the IC50 in experiment [1] worked out at 210 nM; in experiment [2] (Homo sapiens, 120 h), 9500 nM.

On to `C=C(F)C(=O)N1CCN(c2nc(OCCN(C)C3CCC3)nc3c2CCN(c2cccc4ccc(F)c(C)c24)C3)CC1CC#N` (stereo not drawn) [Example 22, 2-(4-(2-(2-(cyclobutyl(methyl)amino)ethyoxyl)-7-(7-fluoro-8-methylnaphthalen-1-yl)-5,6,7,8-tetrahydropyrido[3,4-d]pyrimidin-4-yl)-1-(2-fluoroacroloyl)piperazin-2-yl) acetonitrile], for which the IC50 in experiment [1] (Homo sapiens, NCI-H358, 120 h) is 91 nM; in experiment [2] (Homo sapiens, 120 h), 2200 nM.

In the case of `C=CC(=O)N1CCN(c2nc(OC[C@H](C)N(C)CC3CC3)nc3c2CCN(c2cccc4cccc(C)c24)C3)CC1CC#N` (stereo partly drawn) [Example 74], the IC50 is 80 nM in experiment [1] (Homo sapiens, NCI-H358, 120 h) and 2600 nM in experiment [2] (Homo sapiens, 120 h).

Regarding `C=CC(=O)N1CCN(c2nc(OCCN(C)C3CCC3)nc3c2CCN(c2cccc4ccc(F)c(C)c24)C3)CC1CC#N` (stereo not drawn) [Example 21, 2-(1-acroloyl-4-(2-(2-(cyclobutyl(methyl)amino)ethyoxyl)-7-(7-fluoro-8-methylnaphthalen-1-yl)-5,6,7,8-tetrahydropyrido[3,4-d]pyrimidin-4-yl)piperazin-2-yl) acetonitrile], the IC50 in experiment [1] (Homo sapiens, NCI-H358, 120 h) turned out to be 27 nM; in experiment [2] (Homo sapiens, 120 h), 7800 nM.

For `C=CC(=O)N1CCN(c2nc(OC[C@H](C)N(C)C3CC3)nc3c2CCN(c2cccc4cccc(C)c24)C3)CC1CC#N` (stereo partly drawn) [Example 71, 2-(1-acroloyl-4-(2-((S)-2-(cyclopropyl(methyl)amino)propoxy)-7-(8-methylnaphthalen-1-yl)-5,6,7,8-tetrahydropyrido[3,4-d]pyrimidin-4-yl)piperazin-2-yl) acetonitrile], the IC50 in experiment [1] (Homo sapiens, NCI-H358, 120 h) was 150 nM; in experiment [2] (Homo sapiens, 120 h), 11500 nM.

On to `C=CC(=O)N1CCN(c2nc(O[C@@H](C)CN(C)CC3CC3)nc3c2CCN(c2cccc4cccc(C)c24)C3)CC1CC#N` (stereo partly drawn) [Example 76, 2-(1-acroloyl-4-(2-(((S)-1-((cyclopropylmethyl)(methyl)amino)propan-2-yl)oxy)-7-(8-methylnaphthalen-1-yl)-5,6,7,8-tetrahydropyrido[3,4-d]pyrimidin-4-yl)piperazin-2-yl) acetonitrile], for which the IC50 is 860 nM in experiment [1] (Homo sapiens, NCI-H358, 120 h) and 3500 nM in experiment [2] (Homo sapiens, 120 h).

On to `C=CC(=O)N1CCN(c2nc(O[C@H](C)CN(C)CC3CC3)nc3c2CCN(c2cccc4cccc(C)c24)C3)CC1CC#N` (stereo partly drawn) [Example 77, 2-(1-acroloyl-4-(2-(((R)-1-((cyclopropylmethyl)(methyl)amino)propan-2-yl)oxy)-7-(8-methylnaphthalen-1-yl)-5,6,7,8-tetrahydropyrido[3,4-d]pyrimidin-4-yl)piperazin-2-yl) acetonitrile], for which the IC50 came to 1800 nM in experiment [1] (Homo sapiens, NCI-H358, 120 h) and 2700 nM in experiment [2] (Homo sapiens, 120 h).

For the compound `C=CC(=O)N1CCN(c2nc(OCCN(C)CC3CC3(F)F)nc3c2CCN(c2cccc4cccc(Cl)c24)C3)CC1CC#N` (stereo not drawn) [Example 6], the IC50 in experiment [1] (Homo sapiens, NCI-H358, 120 h) turned out to be 110 nM; in experiment [2] (Homo sapiens, 120 h), 9900 nM.

Turning to `C=CC(=O)N1CCN(c2nc(OCCOC3CC3)nc3c2CCN(c2cccc4cccc(C)c24)C3)CC1CC#N` (stereo not drawn) [Example 93, 2-(1-acroloyl-4-(2-(2-cyclopropoxyethyoxy)-7-(8-methylnaphthalen-1-yl)-5,6,7,8-tetrahydropyrido[3,4-d]pyrimidin-4-yl)piperazin-2-yl) acetonitrile], the IC50 in experiment [1] (Homo sapiens, NCI-H358, 120 h) came to 310 nM; in experiment [2] (Homo sapiens, 120 h), 7800 nM.

On to `C=CC(=O)N1CCN(c2nc(OC[C@@H](C)N(C)C3CC3)nc3c2CCN(c2cccc4cccc(C)c24)C3)CC1CC#N` (stereo partly drawn) [Example 72, 2-(1-acroloyl-4-(2-((R)-2-(cyclopropyl(methyl)amino)propoxy)-7-(8-methylnaphthalen-1-yl)-5,6,7,8-tetrahydropyrido[3,4-d]pyrimidin-4-yl)piperazin-2-yl) acetonitrile], for which the IC50 in experiment [1] (Homo sapiens, NCI-H358, 120 h) came out at 180 nM; in experiment [2] (Homo sapiens, 120 h), 10600 nM.

Consider `C=CC(=O)N1CCN(c2nc(OCC3(CN(C)C)COC3)nc3c2CCN(c2cccc4cccc(Cl)c24)C3)CC1CC#N` (stereo not drawn) [Example 19, 2-(1-acroloyl-4-(7-(8-chloronaphthalen-1-yl)-2-((3-((dimethylamino)methyl)oxetan-3-yl)methoxyl)-5,6,7,8-tetrahydropyrido[3,4-d]pyrimidin-4-yl)piperazin-2-yl) acetonitrile], for which the figures for the IC50 in experiment [1] and in experiment [2] were 4.6 nM and 8900 nM, respectively.

As to `C=CC(=O)N1CCN(c2nc(OCC3(CN(C)C)CC3)nc3c2CCN(c2cccc4cccc(Cl)c24)C3)CC1CC#N` (stereo not drawn) [Example 2, 2-(1-acroloyl-4-(7-(8-chloronaphthalen-1-yl)-2-((1-((dimethylamino)methyl)cyclopropyl)methoxyl)-5,6,7,8-tetrahydropyrido[3,4-d]pyrimidin-4-yl)piperazin-2-yl) acetonitrile], the IC50 in experiment [1] (Homo sapiens, NCI-H358, 120 h) is 7.8 nM; in experiment [2] (Homo sapiens, 120 h), 4300 nM.

For `C=CC(=O)N1CCN(c2nc(OC[C@H](C(C)C)N(C)C3CCC3)nc3c2CCN(c2cccc4cccc(Cl)c24)C3)CC1CC#N` (stereo partly drawn) [Example 9, 2-(1-acroloyl-4-(7-(8-chloronaphthalen-1-yl)-2-((S)-2-(cyclobutyl(methyl)amino)-3-methylbutyloxy)-5,6,7,8-tetrahydropyrido[3,4-d]pyrimidin-4-yl)piperazin-2-yl) acetonitrile], the IC50 was 160 nM in experiment [1] (Homo sapiens, NCI-H358, 120 h) and 17700 nM in experiment [2] (Homo sapiens, 120 h).

Consider `C=C(F)C(=O)N1CCN(c2nc(OC[C@H](C)N(C)C3CCC3)nc3c2CCN(c2cccc4cccc(Cl)c24)C3)CC1CC#N` (stereo partly drawn) [Example 12], for which the IC50 in experiment [1] (Homo sapiens, NCI-H358, 120 h) was determined as 140 nM; in experiment [2] (Homo sapiens, 120 h), 2300 nM.

For `C=CC(=O)N1CCN(c2nc(OCCN(C)CC3CCC3)nc3c2CCN(c2cccc4cccc(C)c24)C3)CC1CC#N` (stereo not drawn) [Example 82, 2-(1-acroloyl-4-(2-(2-((cyclobutylmethyl)(methyl)amino)ethoxy)-7-(8-methylnaphthalen-1-yl)-5,6,7,8-tetrahydropyrido[3,4-d]pyrimidin-4-yl)piperazin-2-yl) acetonitrile], the IC50 in experiment [1] (Homo sapiens, NCI-H358, 120 h) was 160 nM; in experiment [2] (Homo sapiens, 120 h) it was 6600 nM.

`C=CC(=O)N1CCN(c2nc(OCCN(C)[C@@H](C)C3CC3)nc3c2CCN(c2cccc4cccc(C)c24)C3)CC1CC#N` (stereo partly drawn) [Example 78]: the IC50 in experiment [1] (Homo sapiens, NCI-H358, 120 h) is 50 nM; in experiment [2] (Homo sapiens, 120 h), 2800 nM.
